# Measured values reported in patent publication US20070149446A1, “Tamandarin analogs and fragments thereof and methods of making and using” (The Trustees of the University of Pennsylvania Center for …, priority 2003, published 2007).
# Where two headings read alike, the source gives them in different places. Starred links: 1 amine or outer side, 2 acyl side, 3 side chain; linkers in the order of their positions; H or OH if unused. Positions of bridges follow the written chain, without caps; N, C: chain ends. Non-standard residues stand in square brackets, D forms with d. Residues, ends and D or L forms follow the SMILES beside them. Hexanoyl(3S-OH,4R-NH2,5-Me) = CC(C)[C@@H](N[*:1])[C@@H](O)CC(=O)[*:2]; NMeY = CN[C@@H](Cc1ccc(O)cc1)C(=O)O; NMeF = CN[C@@H](Cc1ccccc1)C(=O)O; dNMeL = CN[C@H](CC(C)C)C(=O)O; Hiv = CC(C)[C@H](O)C(=O)O; Lac = C[C@H](O)C(=O)O
# Tests used:
# Settings in all cases: for TGI: total growth inhibition; for CC50: read-out: LC50
# [1] = test system: HELA; test: SRB colorimetric cell growth inhibition assay, HELA
# Method: (§1) This form of assay employs 96 well cell culture microplates of […] diameter (Faircloth, 1988; Mosmann, 1983). Most of the cell lines are obtained from American Type Culture Collection (ATCC) derived from different human cancer types.
# (§2) Cells are maintained in RPMI 1640 10% FBS, supplemented with 0.1 g/l penicillin and 0.1 g/l streptomycin sulfate and then incubated at 37° C., 5% CO2 and 98% humidity. For the experiments, cells were harvested from subconfluent cultures using trypsin and resuspended in fresh medium before plating.
# (§3) Cells are seeded in 96 well microtiter plates, at 5×10^3 cells per well in aliquots of 195 μl medium, and they are allowed to attach to the plate surface by growing in drug free medium for 18 hours. Afterward, samples are added in aliquots of 5 μl in a ranging from 10 to 10-8 μg/ml, dissolved in DMSO/EtOH/PBS (0.5:0.5:99). After 48 hours exposure, the antitumor effect are measured by the SRB methodology: cells are fixed by adding 50 μl of cold 50% (wt/vol) trichloroacetic acid (TCA) and incubated for 60 minutes at 4° C.
# (§4) Plates are washed with deionised water and dried. One hundred μl of SRB solution (0.4% wt/vol in 1% acetic acid) is added to each microtiter well and incubated for 10 minutes at room temperature. Unbound SRB is removed by washing with 1% acetic acid. Plates are air dried and bound stain is solubilized with Tris buffer. Optical densities are read on a automated spectrophotometric plate reader at a single wavelength of 490 nm.
# (§5) The values for mean+/−SD of data from triplicate wells are calculated.
# (§6) Some parameters for cellular responses can be calculated: GI=growth inhibition, TGI=total growth inhibition (cytostatic effect) and LC=cell killing (cytotoxic effect).
# [2] = test system: A549; test: SRB colorimetric cell growth inhibition assay, A549
# Method: as §1, §2, §3, §4, §5, §6
# [3] = test system: PANC1; test: SRB colorimetric cell growth inhibition assay, PANC1
# Method: as §1, §2, §3, §4, §5, §6
# [4] = test system: SK-MEL-28; test: SRB colorimetric cell growth inhibition assay, SK-MEL-28
# Method: as §1, §2, §3, §4, §5, §6
# [5] = test system: HELA-APL; test: SRB colorimetric cell growth inhibition assay, HELA-APL
# Method: as §1, §2, §3, §4, §5, §6
# [6] = test system: K562; test: SRB colorimetric cell growth inhibition assay, K562
# Method: as §1, §2, §3, §4, §5, §6
# [7] = test system: IGROV; test: SRB colorimetric cell growth inhibition assay, IGROV
# Method: as §1, §2, §3, §4, §5, §6
# [8] = test system: LN-caP; test: SRB colorimetric cell growth inhibition assay, LN-caP
# Method: as §1, §2, §3, §4, §5, §6
# [9] = test system: HT29; test: SRB colorimetric cell growth inhibition assay, HT29
# Method: as §1, §2, §3, §4, §5, §6
# [10] = test system: LOVO; test: SRB colorimetric cell growth inhibition assay, LOVO
# Method: as §1, §2, §3, §4, §5, §6
# [11] = test system: DU145; test: SRB colorimetric cell growth inhibition assay, DU145
# Method: as §1, §2, §3, §4, §5, §6
# [12] = test system: IGROV-ET; test: SRB colorimetric cell growth inhibition assay, IGROV-ET
# Method: as §1, §2, §3, §4, §5, §6
# [13] = test system: SK-BR3; test: SRB colorimetric cell growth inhibition assay, SK-BR3
# Method: as §1, §2, §3, §4, §5, §6
# [14] = test system: LOVO-DOX; test: SRB colorimetric cell growth inhibition assay, LOVO-DOX
# Method: as §1, §2, §3, §4, §5, §6
# [15] = HELA cells, SRB, 48 hours exposure
# [16] = A549 cells, SRB, 48 hours exposure
# [17] = PANC1 cells, SRB, 48 hours exposure
# [18] = SK-MEL-28 cells, SRB, 48 hours exposure
# [19] = HELA-APL cells, SRB, 48 hours exposure
# [20] = K562 cells, SRB, 48 hours exposure
# [21] = IGROV cells, SRB, 48 hours exposure
# [22] = LN-caP cells, SRB, 48 hours exposure
# [23] = HT29 cells, SRB, 48 hours exposure
# [24] = LOVO cells, SRB, 48 hours exposure
# [25] = DU145 cells, SRB, 48 hours exposure
# [26] = IGROV-ET cells, SRB, 48 hours exposure
# [27] = SK-BR3 cells, SRB, 48 hours exposure
# [28] = LOVO-DOX cells, SRB, 48 hours exposure
smiles,measurement,setting,value
"CC(C)C[C@@H]1NC(=O)[C@H](C(C)C)OC(=O)C[C@H](O)[C@@H](C(C)C)NC(=O)[C@@H](NC(=O)[C@@H](CC(C)C)N(C)C(=O)[C@@H]2CCCN2C(=O)[C@H](C)O)[C@@H](C)OC(=O)[C@H](Cc2ccccc2)N(C)C(=O)[C@@H]2CCCN2C1=O [Phe^5 tamandarin B, [N-MePhe^5]-Tamandarin B] (H-[Lac]P[dNMeL]T[Hexanoyl(3S-OH,4R-NH2,5-Me)][Hiv]LP[NMeF]; ester 4-C)",TGI,[1]; [15],4.61E−09 Molar
same,GI50,"[1]; HELA cervix carcinoma cells, SRB, 48 hours exposure",1.17 nM
same,CC50,"[1]; HELA cells, cell killing, SRB, 48 hours exposure",55.5 nM
same,TGI,[2]; [16],3.90E−08 Molar
same,GI50,"[2]; A549 lung carcinoma cells, SRB, 48 hours exposure",4.56 nM
same,CC50,"[2]; A549 cells, cell killing, SRB, 48 hours exposure",935 nM
same,TGI,[3]; [17],3.28E−08 Molar
same,GI50,"[3]; PANC1 pancreatic carcinoma cells, SRB, 48 hours exposure",3.81 nM
same,CC50,"[3]; PANC1 cells, cell killing, SRB, 48 hours exposure",9880 nM
same,GI50,"[4]; SK-MEL-28 (MEL-28) melanoma cells, SRB, 48 hours exposure",2.74 nM
same,TGI,[4]; [18],1.88E−08 Molar
same,CC50,"[4]; SK-MEL-28 cells, cell killing, SRB, 48 hours exposure",205 nM
same,GI50,"[5]; HELA-APL (aplidine resistant) cervix cells, SRB, 48 hours exposure",44.5 nM
same,TGI,[5]; [19],4.23E−07 Molar
same,CC50,"[5]; HELA-APL cells, cell killing, SRB, 48 hours exposure",9880 nM
same,GI50,[6]; [20],23.2 nM
same,TGI,[6]; [20],9.88E−07 Molar
same,CC50,"[6]; K562 cells, cell killing, SRB, 48 hours exposure",9880 nM
same,TGI,[7]; [21],1.28E−08 Molar
same,GI50,"[7]; IGROV ovary adenocarcinoma cells, SRB, 48 hours exposure",2.49 nM
same,CC50,"[7]; IGROV cells, cell killing, SRB, 48 hours exposure",124 nM
same,TGI,[8]; [22],8.32E−09 Molar
same,GI50,"[8]; LN-caP prostate adenocarcinoma cells, SRB, 48 hours exposure",1.52 nM
same,CC50,"[8]; LN-caP cells, cell killing, SRB, 48 hours exposure",101 nM
same,TGI,[9]; [23],7.89E−08 Molar
same,GI50,"[9]; HT29 colon adenocarcinoma cells, SRB, 48 hours exposure",4.77 nM
same,CC50,"[9]; HT29 cells, cell killing, SRB, 48 hours exposure",9880 nM
same,TGI,[10]; [24],8.81E−08 Molar
same,GI50,"[10]; LOVO colon adenocarcinoma cells, SRB, 48 hours exposure",26.1 nM
same,CC50,"[10]; LOVO cells, cell killing, SRB, 48 hours exposure",5220 nM
same,TGI,[11]; [25],1.02E−08 Molar
same,GI50,"[11]; DU145 prostate carcinoma cells, SRB, 48 hours exposure",2.37 nM
same,CC50,"[11]; DU145 cells, cell killing, SRB, 48 hours exposure",268 nM
same,GI50,"[12]; IGROV-ET (ET-743 resistant) ovary cells, SRB, 48 hours exposure",215 nM
same,TGI,[12]; [26],7.88E−07 Molar
same,CC50,"[12]; IGROV-ET cells, cell killing, SRB, 48 hours exposure",6350 nM
same,GI50,"[13]; SK-BR3 breast adenocarcinoma cells, SRB, 48 hours exposure",0.658 nM
same,TGI,[13]; [27],4.49E−09 Molar
same,CC50,"[13]; SK-BR3 cells, cell killing, SRB, 48 hours exposure",312 nM
same,GI50,"[14]; LOVO-DOX (MDR) colon adenocarcinoma cells, SRB, 48 hours exposure",358 nM
same,TGI,[14]; [28],1.97E−06 Molar
same,CC50,"[14]; LOVO-DOX cells, cell killing, SRB, 48 hours exposure",9880 nM
"COc1ccc(C[C@H]2C(=O)OC[C@H](NC(=O)[C@@H](CC(C)C)N(C)C(=O)[C@@H]3CCCN3C(=O)[C@H](C)O)C(=O)N[C@H](C(C)C)[C@@H](O)CC(=O)O[C@@H](C(C)C)C(=O)N[C@@H](CC(C)C)C(=O)N3CCC[C@H]3C(=O)N2C)cc1 [Compound 62, [N-Ser^6]-Tamandarin B] (H-[Lac]P[dNMeL]S[Hexanoyl(3S-OH,4R-NH2,5-Me)][Hiv]LP[NMeY](Me); ester 4-C)",TGI,[1]; [15],2.61E−08 Molar
same,GI50,"[1]; Homo sapiens, HeLa, 48 h",3.76 nM
same,CC50,"[1]; Homo sapiens, HeLa, 48 h",368 nM
same,TGI,[2]; [16],3.51E−07 Molar
same,GI50,"[2]; Homo sapiens, A549, 48 h",51.5 nM
same,CC50,"[2]; Homo sapiens, A549, 48 h",2900 nM
same,GI50,"[3]; Homo sapiens, PANC-1, 48 h",34.9 nM
same,CC50,"[3]; Homo sapiens, PANC-1, 48 h",≥ 9730 nM
same,TGI,[3]; [17],8.82E−07 Molar
same,GI50,"[4]; Homo sapiens, SK-MEL-28, 48 h",16.6 nM
same,CC50,"[4]; Homo sapiens, SK-MEL-28, 48 h",675 nM
same,TGI,[4]; [18],8.24E−08 Molar
same,TGI,[5]; [19],5.41E−06 Molar
same,GI50,"[5]; Homo sapiens, 48 h",411 nM
same,CC50,"[5]; Homo sapiens, 48 h",≥ 9730 nM
same,GI50,"[6]; Homo sapiens, K562, 48 h",78 nM
same,CC50,"[6]; Homo sapiens, K562, 48 h",2390 nM
same,TGI,[6]; [20],3.03E−07 Molar
same,GI50,"[7]; Homo sapiens, IGROV, 48 h",1990 nM
same,CC50,"[7]; Homo sapiens, IGROV, 48 h",9840 nM
same,TGI,[7]; [21],5.29E−06 Molar
same,GI50,"[8]; Homo sapiens, LNCaP, 48 h",2.71 nM
same,CC50,"[8]; Homo sapiens, LNCaP, 48 h",58.4 nM
same,TGI,[8]; [22],7.24E−09 Molar
same,TGI,[9]; [23],2.03E−07 Molar
same,GI50,"[9]; Homo sapiens, HT-29, 48 h",23.7 nM
same,CC50,"[9]; Homo sapiens, HT-29, 48 h",≥ 9730 nM
same,GI50,"[10]; Homo sapiens, LoVo, 48 h",38.9 nM
same,CC50,"[10]; Homo sapiens, LoVo, 48 h",3660 nM
same,TGI,[10]; [24],2.31E−07 Molar
same,TGI,[11]; [25],2.49E−08 Molar
same,GI50,"[11]; Homo sapiens, DU-145, 48 h",6.79 nM
same,CC50,"[11]; Homo sapiens, DU-145, 48 h",82.6 nM
same,GI50,"[12]; Homo sapiens, 48 h",456 nM
same,CC50,"[12]; Homo sapiens, 48 h",6950 nM
same,TGI,[12]; [26],1.90E−06 Molar
same,GI50,"[13]; Homo sapiens, SK-BR-3, 48 h",3.74 nM
same,CC50,"[13]; Homo sapiens, SK-BR-3, 48 h",≥ 9730 nM
same,TGI,[13]; [27],4.05E−08 Molar
same,GI50,"[14]; Homo sapiens, 48 h",2390 nM
same,CC50,"[14]; Homo sapiens, 48 h",≥ 9730 nM
same,TGI,[14]; [28],8.40E−06 Molar
